# Laboratory results published in patent US11123337B2, “4-methylsulfonyl-substituted piperidine urea compounds” (MYOKARDIA, INC., priority 2015, dated 2021).
# Target: bovine cardiac myosin (Bos taurus, UniProt Q9BE39)
# Assay: Myosin activation assay (PK/LDH-coupled ATPase, bovine cardiac myofibrils)
# Assay type: biochemical
# Conditions: AC20 = concentration at which total response is increased by twenty percent
# How it was run: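 Values are the concentrations raising the ATPase rate by 20% or 50% over DMSO, from 10-point dose responses fitted with four parameters. Rate is NADH loss at 340 nm via PK/LDH coupling, read 15 min at room temperature, in pH 6.8 PIPES with 50 μM ATP. Bovine cardiac myofibrils were held at pCa ~6 or pCa 10.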
# bovine cardiac myosin, sequence (Q9BE39 whole entry): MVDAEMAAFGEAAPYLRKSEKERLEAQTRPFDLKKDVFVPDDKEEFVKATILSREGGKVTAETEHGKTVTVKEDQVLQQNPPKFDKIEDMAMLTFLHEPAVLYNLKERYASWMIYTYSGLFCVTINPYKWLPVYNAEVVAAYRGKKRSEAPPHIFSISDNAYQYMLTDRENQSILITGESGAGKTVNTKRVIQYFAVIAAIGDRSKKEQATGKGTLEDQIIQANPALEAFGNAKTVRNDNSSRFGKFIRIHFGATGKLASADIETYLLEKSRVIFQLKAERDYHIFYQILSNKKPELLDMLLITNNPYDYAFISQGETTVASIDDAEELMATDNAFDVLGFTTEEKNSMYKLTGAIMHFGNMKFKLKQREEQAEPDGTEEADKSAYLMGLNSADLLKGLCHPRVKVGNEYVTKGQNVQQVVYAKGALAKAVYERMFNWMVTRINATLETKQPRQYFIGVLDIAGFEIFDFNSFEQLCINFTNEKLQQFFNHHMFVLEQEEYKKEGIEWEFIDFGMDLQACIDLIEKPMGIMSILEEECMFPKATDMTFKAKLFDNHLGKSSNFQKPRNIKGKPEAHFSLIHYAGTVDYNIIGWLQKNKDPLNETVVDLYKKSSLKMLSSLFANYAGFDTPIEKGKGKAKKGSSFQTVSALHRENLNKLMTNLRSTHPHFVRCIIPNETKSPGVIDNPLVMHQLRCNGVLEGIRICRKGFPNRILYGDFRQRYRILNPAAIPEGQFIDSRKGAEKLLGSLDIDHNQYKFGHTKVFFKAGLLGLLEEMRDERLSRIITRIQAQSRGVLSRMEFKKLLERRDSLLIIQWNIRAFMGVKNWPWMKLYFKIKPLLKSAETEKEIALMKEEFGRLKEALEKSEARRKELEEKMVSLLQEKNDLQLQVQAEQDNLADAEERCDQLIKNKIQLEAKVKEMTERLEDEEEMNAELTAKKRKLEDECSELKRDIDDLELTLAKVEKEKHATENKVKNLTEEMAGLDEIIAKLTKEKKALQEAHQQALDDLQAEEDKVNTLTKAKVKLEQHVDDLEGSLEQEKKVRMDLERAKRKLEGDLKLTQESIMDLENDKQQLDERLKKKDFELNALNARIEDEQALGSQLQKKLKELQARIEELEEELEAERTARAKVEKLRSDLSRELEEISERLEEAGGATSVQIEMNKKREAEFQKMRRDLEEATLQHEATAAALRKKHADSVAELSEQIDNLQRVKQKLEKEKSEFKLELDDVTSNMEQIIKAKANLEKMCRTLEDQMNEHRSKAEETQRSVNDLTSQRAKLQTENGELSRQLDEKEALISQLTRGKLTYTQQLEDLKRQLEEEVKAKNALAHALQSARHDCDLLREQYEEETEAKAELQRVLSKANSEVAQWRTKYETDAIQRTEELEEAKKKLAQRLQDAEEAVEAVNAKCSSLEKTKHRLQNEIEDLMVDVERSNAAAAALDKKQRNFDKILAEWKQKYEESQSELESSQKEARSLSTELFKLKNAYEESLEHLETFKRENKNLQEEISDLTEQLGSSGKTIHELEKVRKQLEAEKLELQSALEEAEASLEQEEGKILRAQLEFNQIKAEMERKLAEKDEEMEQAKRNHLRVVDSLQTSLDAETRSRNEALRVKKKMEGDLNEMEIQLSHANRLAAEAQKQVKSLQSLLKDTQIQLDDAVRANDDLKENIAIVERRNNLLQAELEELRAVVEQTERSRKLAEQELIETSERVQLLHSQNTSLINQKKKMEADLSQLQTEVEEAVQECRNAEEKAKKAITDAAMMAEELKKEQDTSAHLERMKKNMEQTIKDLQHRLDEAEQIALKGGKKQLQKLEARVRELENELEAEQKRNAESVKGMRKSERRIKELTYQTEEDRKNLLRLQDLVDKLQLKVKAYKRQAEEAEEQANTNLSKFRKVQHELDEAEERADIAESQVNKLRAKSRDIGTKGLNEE
# bovine cardiac myosin, sequence (P85100 whole entry partner): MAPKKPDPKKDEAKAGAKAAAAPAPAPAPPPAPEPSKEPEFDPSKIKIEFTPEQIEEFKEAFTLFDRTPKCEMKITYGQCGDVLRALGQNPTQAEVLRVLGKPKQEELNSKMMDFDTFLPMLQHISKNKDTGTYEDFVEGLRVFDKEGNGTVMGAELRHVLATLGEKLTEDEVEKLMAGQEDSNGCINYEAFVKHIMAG
# bovine cardiac myosin, sequence (Q3SZE5 whole entry partner): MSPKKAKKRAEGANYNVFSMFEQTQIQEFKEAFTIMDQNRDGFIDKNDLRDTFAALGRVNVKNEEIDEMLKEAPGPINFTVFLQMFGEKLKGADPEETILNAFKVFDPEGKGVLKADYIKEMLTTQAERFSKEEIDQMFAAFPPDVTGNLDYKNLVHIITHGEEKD
row,SMILES,Myosin Activation (AC20)
1,"Cn1cc(S(=O)(=O)C(C)(C)C2CCN(C(=O)Nc3ccnnc3)CC2)cn1 [Compound 199, 4-(2-((1-methyl-1H-pyrazol-4-yl)sulfonyl)propan-2-yl)-N-(pyridazin-4-yl)piperidine-1-carboxamide]",+ (+ represents myosin activation value AC20 > 5 μM)
2,"N#Cc1ccccc1S(=O)(=O)C(F)(F)C1CCN(C(=O)Nc2ccnnc2)CC1 [Compound 54, 4-(((2-cyanophenyl)sulfonyl)difluoromethyl)-N-(pyridazin-4-yl)piperidine-1-carboxamide]",++ (++ represents myosin activation value AC20 from 2 μM-5 μM)
3,"COc1ccccc1S(=O)(=O)C(C)(C)C1CCN(C(=O)Nc2ccns2)CC1 [Compound 215, N-(isothiazol-5-yl)-4-(2-((2-methoxyphenyl)sulfonyl)propan-2-yl)piperidine-1-carboxamide]",++ (++ represents myosin activation value AC20 from 2 μM-5 μM)
4,"O=C(Nc1ccnnc1)N1CCC(F)(C2(S(=O)(=O)c3cccc(F)c3)CCC2)CC1 [Compound 166, 4-fluoro-4-(1-((3-fluorophenyl)sulfonyl)cyclobutyl)-N-(pyridazin-4-yl)piperidine-1-carboxamide]",++ (++ represents myosin activation value AC20 from 2 μM-5 μM)
5,"CC(C)(C1CCN(C(=O)Nc2cnccn2)CC1)S(=O)(=O)c1cccc(F)c1 [Compound 131, 4-(2-((3-fluorophenyl)sulfonyl)propan-2-yl)-N-(pyrazin-2-yl)piperidine-1-carboxamide]",+ (+ represents myosin activation value AC20 > 5 μM)
6,"Cn1cc(S(=O)(=O)C(C)(F)C2CCN(C(=O)Nc3ccnc(F)c3)CC2)c(C(F)(F)F)n1 (centres unmarked) [Compound 245, 4-(1-fluoro-1-((1-methyl-3-(trifluoromethyl)-1H-pyrazol-4-yl)sulfonyl)ethyl)-N-(2-fluoropyridin-4-yl)piperidine-1-carboxamide]",++ (++ represents myosin activation value AC20 from 2 μM-5 μM)
7,"Cn1cc(S(=O)(=O)C(F)(F)C2CCN(C(=O)Nc3ccc(C#N)nc3)CC2)c(C(F)F)n1 [Compound 78, N-(6-cyanopyridin-3-yl)-4-(((3-(difluoromethyl)-1-methyl-1H-pyrazol-4-yl)sulfonyl)difluoromethyl)piperidine-1-carboxamide]",+ (+ represents myosin activation value AC20 > 5 μM)
8,"O=C(Nc1ccnnc1)N1CCC(C2(S(=O)(=O)c3cccc(F)c3)CC(F)(F)C2)CC1 [Compound 28, 4-(3,3-Difluoro-1-((3-fluorophenyl)sulfonyl)cyclobutyl)-N-(pyridazin-4-yl)piperidine-1-carboxamide]",++ (++ represents myosin activation value AC20 from 2 μM-5 μM)
9,"C[C@](F)(C1CCN(C(=O)Nc2ccon2)CC1)S(=O)(=O)c1ccc(C(F)(F)F)nc1 [Compound 310, (R)-4-(1-fluoro-1-((6-(trifluoromethyl)pyridin-3-yl)sulfonyl)ethyl)-N-(isoxazol-3-yl)piperidine-1-carboxamide]",++ (++ represents myosin activation value AC20 from 2 μM-5 μM)
10,"Cc1cnc(NC(=O)N2CCC(C(C)(C)S(=O)(=O)c3cccc(F)c3)CC2)cn1 [Compound 125, 4-(2-((3-fluorophenyl)sulfonyl)propan-2-yl)-N-(5-methylpyrazin-2-yl)piperidine-1-carboxamide]",+ (+ represents myosin activation value AC20 > 5 μM)
11,"Cn1cc(S(=O)(=O)C(C)(C)C2CCN(C(=O)Nc3ccon3)CC2)c(Cl)n1 [Compound 27, 4-(2-((3-Chloro-1-methyl-1H-pyrazol-4-yl)sulfonyl)propan-2-yl)-N-(isoxazol-3-yl)piperidine-1-carboxamide]",+ (+ represents myosin activation value AC20 > 5 μM)
12,"Cn1cc(S(=O)(=O)[C@@](C)(F)C2CCN(C(=O)Nc3cccnc3)CC2)c(C(F)F)n1 [Compound 288, (R)-4-(1-((3-(difluoromethyl)-1-methyl-1H-pyrazol-4-yl)sulfonyl)-1-fluoroethyl)-N-(pyridin-3-yl)piperidine-1-carboxamide]",++ (++ represents myosin activation value AC20 from 2 μM-5 μM)
13,"CC(C)(C1CCN(C(=O)Nc2cn[nH]c2)CC1)S(=O)(=O)c1cccc(F)c1 [Compound 146, 4-(2-((3-fluorophenyl)sulfonyl)propan-2-yl)-N-(1H-pyrazol-4-yl)piperidine-1-carboxamide]",++ (++ represents myosin activation value AC20 from 2 μM-5 μM)
14,"Cc1cc(S(=O)(=O)C(C)(C)C2CCN(C(=O)Nc3ccnnc3)CC2)n(C)n1 [Compound 187, 4-(2-((1,3-dimethyl-1H-pyrazol-5-yl)sulfonyl)propan-2-yl)-N-(pyridazin-4-yl)piperidine-1-carboxamide]",+++ (+++ represents myosin activation value AC20 < 2 μM)
15,"CC(C)(C1CCN(C(=O)Nc2ccnnc2)CC1)S(=O)(=O)c1ccc2ccnn2c1 [Compound 189, 4-(2-(pyrazolo[1,5-a]pyridin-6-ylsulfonyl)propan-2-yl)-N-(pyridazin-4-yl)piperidine-1-carboxamide]",+++ (+++ represents myosin activation value AC20 < 2 μM)
16,"Cn1cc(S(=O)(=O)C(C)(F)C2CCN(C(=O)Nc3ccon3)CC2)c(C(F)(F)F)n1 (centres unmarked) [Compound 16, 4-(1-Fluoro-1-((1-methyl-3-(trifluoromethyl)-1H-pyrazol-4-yl)sulfonyl)ethyl)-N-(isoxazol-3-yl)piperidine-1-carboxamide]",++ (++ represents myosin activation value AC20 from 2 μM-5 μM)
17,"O=C(Nc1ccnnc1)N1CCC(C(F)(F)S(=O)(=O)c2ccccc2C(F)F)CC1 [Compound 4, 4-(((2-(Difluoromethyl)phenyl)sulfonyl)difluoromethyl)-N-(pyridazin-4-yl)piperidine-1-carboxamide]",++ (++ represents myosin activation value AC20 from 2 μM-5 μM)
18,"Cc1ccc(NC(=O)N2CCC([C@](C)(F)S(=O)(=O)c3cn(C)nc3C(F)F)CC2)cn1 [Compound 260, (R)-4-(1-((3-(difluoromethyl)-1-methyl-1H-pyrazol-4-yl)sulfonyl)-1-fluoroethyl)-N-(6-methylpyridin-3-yl)piperidine-1-carboxamide]",++ (++ represents myosin activation value AC20 from 2 μM-5 μM)
19,"O=C(Nc1ccncc1)N1CCC(C2(S(=O)(=O)c3ccc(OC(F)(F)F)cc3)CC2)CC1 [Compound 206, N-(pyridin-4-yl)-4-(1-((4-(trifluoromethoxy)phenyl)sulfonyl)cyclopropyl)piperidine-1-carboxamide]",+++ (+++ represents myosin activation value AC20 < 2 μM)
20,"O=C(Nc1ccnnc1)N1CCC(C(F)(F)S(=O)(=O)c2ccc(O)cc2Cl)CC1 [Compound 92, 4-(((2-chloro-4-hydroxyphenyl)sulfonyl)difluoromethyl)-N-(pyridazin-4-yl)piperidine-1-carboxamide]",++ (++ represents myosin activation value AC20 from 2 μM-5 μM)
21,"Cn1nc(C(F)(F)F)cc1S(=O)(=O)[C@](C)(F)C1CCN(C(=O)Nc2ccnc(F)c2)CC1 [Compound 230, (S)-4-(1-fluoro-1-((1-methyl-3-(trifluoromethyl)-1H-pyrazol-5-yl)sulfonyl)ethyl)-N-(2-fluoropyridin-4-yl)piperidine-1-carboxamide]",+ (+ represents myosin activation value AC20 > 5 μM)
22,"CC(C)(C1CCN(C(=O)Nc2ccns2)CC1)S(=O)(=O)c1ccccc1Cl [Compound 208, 4-(2-((2-chlorophenyl)sulfonyl)propan-2-yl)-N-(isothiazol-5-yl)piperidine-1-carboxamide]",++ (++ represents myosin activation value AC20 from 2 μM-5 μM)
23,"CC(C)(C1CCN(C(=O)Nc2ccnnc2)CC1)S(=O)(=O)c1ccccc1C#N [Compound 204, 4-(2-((2-cyanophenyl)sulfonyl)propan-2-yl)-N-(pyridazin-4-yl)piperidine-1-carboxamide]",+ (+ represents myosin activation value AC20 > 5 μM)
24,"CC(C)(C1(O)CCN(C(=O)Nc2ccnnc2)CC1)S(=O)(=O)c1cccc(F)c1 [Compound 163, 4-(2-((3-fluorophenyl)sulfonyl)propan-2-yl)-4-hydroxy-N-(pyridazin-4-yl)piperidine-1-carboxamide]",+ (+ represents myosin activation value AC20 > 5 μM)
25,"Cn1nccc1S(=O)(=O)C(C)(F)C1CCN(C(=O)Nc2ccnnc2)CC1 (centres unmarked) [Compound 271, 4-(1-fluoro-1-((1-methyl-1H-pyrazol-5-yl)sulfonyl)ethyl)-N-(pyridazin-4-yl)piperidine-1-carboxamide]",++ (++ represents myosin activation value AC20 from 2 μM-5 μM)
26,"CN(C)c1ncccc1S(=O)(=O)C(F)(F)C1CCN(C(=O)Nc2ccnnc2)CC1 [Compound 96, 4-(((2-(dimethylamino)pyridin-3-yl)sulfonyl)difluoromethyl)-N-(pyridazin-4-yl)piperidine-1-carboxamide]",+ (+ represents myosin activation value AC20 > 5 μM)
27,"Cn1cc(S(=O)(=O)[C@@](C)(F)C2CCN(C(=O)Nc3cc[nH]n3)CC2)c(C(F)F)n1 [Compound 290, (R)-4-(1-((3-(difluoromethyl)-1-methyl-1H-pyrazol-4-yl)sulfonyl)-1-fluoroethyl)-N-(1H-pyrazol-3-yl)piperidine-1-carboxamide]",++ (++ represents myosin activation value AC20 from 2 μM-5 μM)
28,"O=C(Nc1ccnnc1)N1CCC(C(F)(F)S(=O)(=O)c2ccccc2-n2cncn2)CC1 [Compound 86, 4-(((2-(1H-1,2,4-triazol-1-yl)phenyl)sulfonyl)difluoromethyl)-N-(pyridazin-4-yl)piperidine-1-carboxamide]",++ (++ represents myosin activation value AC20 from 2 μM-5 μM)
29,"Cn1cc(S(=O)(=O)C(F)(F)C2CCN(C(=O)Nc3ccnnc3)CC2)c(C(F)F)n1 [Compound 83, 4-(((3-(difluoromethyl)-1-methyl-1H-pyrazol-4-yl)sulfonyl)difluoromethyl)-N-(pyridazin-4-yl)piperidine-1-carboxamide]",++ (++ represents myosin activation value AC20 from 2 μM-5 μM)
